Laboratory results taken from PMC6394990, “Detailed characterization of the solution kinetics and thermodynamics of biotin, biocytin and HABA binding to avidin and streptavidin” (PLoS ONE, 2019).
Where two headings read alike, the source gives them in different places.

Target: T1, avidin (AV) (Gallus gallus, UniProt P02701)
T1 construct: purchased Calbiochem (La Jolla, CA)
Assay: Stopped-flow association kinetics of dye-labeled biotin probes binding to avidin (F(t), rF(t); Arrhenius plots/global fitting)
Set-up: ln(k) / dS+ / dG+ / Eon for BFl / b of the line y = m1x+b1: unit not given here
Conditions: for k(average): k (full value)
Procedure: These reactions were carried out in a buffered solution of 10 mM Tris-HCl, 100 mM KCl, 2.5 mM MgCl2 and 1 mM CaCl2 at pH 8 and only AV-BcO reactions included pH 9 and 10. The concentrations, after mixing, were of 20 nM of dye-labeled B7 probe and 260 nM, 520 nM or 1040 nM of AV; and 200 nM, 300 nM, 400 nM or 800 nM of SAV at temperatures of 10, 15, 20 and 25°C. The deglycosylation of AV (for comparative association reactions) was carried out using the provided standard protocol with endoglycosidase H [47], both with and without incubation of a denaturant solution (2% SDS and 1M 2-mercaptoethanol).
The reactions were collected with the SF instrument, described previously. The fluorescence signal was collected through a 520 nm interference filter (Oriel Corp., Stratford, CT) with a detector time constant and SF dead time of 1 μs and 1 ms, respectively. The excitation light was provided by the Coherent Ar^+ ion laser (described above) at 488 nm with […] of incident power on the reaction cuvette. The laser source was followed by the photo-elastic modulator described above with the axis oriented 45^o with respect to the electric vector of the incident light and with the half-wave modulation (50 kHz) set for 488 nm excitation. The demodulation circuitry following the photomultiplier provided a DC(t) and a rectified AC(t) which were converted to digital data by a high-speed digitizer (PCI-5122) from National Instruments (Austin, TX) with 14-bit resolution and 100 MHz bandwidth, through channels 0 and 1. The data acquisition was controlled by LabVIEW (Vr 8) software at a collection rate of 6120 data points/second and stored in spreadsheets. The AC(t) and DC(t) data were baseline corrected before obtaining the signal ratio (Eq 4) as a function of time (ρt).
The constant AGain is the instrumental amplitude gain and was evaluated by solving ρ(t) using the known steady state anisotropy (rss) of the complexes which is equivalent to the r(t) at t = ∞; and H, obtained from the equivalent grating factor (G) for the filters and photo multiplier tubes in the SF. For the probes used in here G was 0.82 and H = (1-G)/(1+G) = 0.099. Knowing Again and H, the AC(t) and DC(t) signals can be solved for r(t) and F(t) (Eqs 4 and 5) and the normalized fluorescence, F¯(t) , and corrected fluorescence anisotropy, rF¯(t), were obtained when F¯(0) and rF¯(0) were scaled to 1 at t = 0.
The F¯(t) (Eq 6) is equivalent to (I||) + 2 (I⊥) and proportional to quantum yield (QYi), molar absorptivity (εi) and to the formation or disappearance of the emitting species Xi(t); and rF¯(t) including the steady state anisotropies (rss) of each fluorescent species (Eq 7).
The possible reaction models were discriminated by the squared residuals of the observed and calculated association traces of both fluorescence and anisotropy fluorescence signals, F¯(t) and rF¯(t) , respectively.

T1 sequence (P02701 25-152): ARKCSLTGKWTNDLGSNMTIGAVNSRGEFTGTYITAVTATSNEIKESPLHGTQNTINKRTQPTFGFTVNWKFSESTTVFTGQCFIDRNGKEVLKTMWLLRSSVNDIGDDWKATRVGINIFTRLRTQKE

NC(CCCCNC(=O)CCCC[C@@H]1SC[C@@H]2NC(=O)N[C@@H]21)C(=O)NCCCCCNC(=O)c1ccc(-c2c3cc(F)c(=O)cc-3oc3cc(O)c(F)cc23)c(C(=O)O)c1 (some centres unmarked) [BcO, Oregon green 488 Biocytin]
kon fold slower than Green's 7 × 10^7 M^-1s^-1 (25°C and pH 8 vs 25°C and pH 5): 7.4 X
fold by which the SPR kon (ref 20) is slower than the kon of the probe (AV): ~ 5 X
b of the line y = m1x+b1 (AV 1, reacting with BcO): 40.2925
slope, m of the line y = m1x+b1 (AV 1, reacting with BcO, x = 1/Temp): -7277.8
kon by corrected fluorescence anisotropy rF(t) (AV-BcO, 10 °C, 260 nM): 2.7e+06 ± 100000 M⁻¹ s⁻¹
kon (AV-BcO, 10 °C, 260 nM, read-out: kon by corrected fluorescence anisotropy rF(t)): 2.65e+06 M⁻¹ s⁻¹
kon (AV-BcO, 10 °C, 260 nM, read-out: kon by fluorescence change F(t)): 2.4e+06 ± 100000 M⁻¹ s⁻¹
kon (AV-BcO, 10 °C, 260 nM, read-out: kon by fluorescence change F(t), right block without spread): 2.42e+06 M⁻¹ s⁻¹
kon by corrected fluorescence anisotropy rF(t) (AV-BcO, 10 °C, 520 nM): 2.7e+06 ± 100000 M⁻¹ s⁻¹
kon (AV-BcO, 10 °C, 520 nM, read-out: kon by corrected fluorescence anisotropy rF(t)): 2.69e+06 M⁻¹ s⁻¹
kon (AV-BcO, 10 °C, 520 nM, read-out: kon by fluorescence change F(t)): 2.6e+06 ± 200000 M⁻¹ s⁻¹
kon (AV-BcO, 10 °C, 520 nM, read-out: kon by fluorescence change F(t), right block without spread): 2.61e+06 M⁻¹ s⁻¹
kon by corrected fluorescence anisotropy rF(t) (AV-BcO, 10 °C, 1040 nM): 2.7e+06 ± 100000 M⁻¹ s⁻¹
kon (AV-BcO, 10 °C, 1040 nM, read-out: kon by corrected fluorescence anisotropy rF(t)): 2.72e+06 M⁻¹ s⁻¹
kon (AV-BcO, 10 °C, 1040 nM, read-out: kon by fluorescence change F(t)): 2.5e+06 ± 200000 M⁻¹ s⁻¹
kon (AV-BcO, 10 °C, 1040 nM, read-out: kon by fluorescence change F(t), right block without spread): 2.52e+06 M⁻¹ s⁻¹
kon (AV-BcO, 10 °C, average of F(t) and rF(t) at 260, 520, 1040 nM, read-out: kon, Average): 2.6e+06 M⁻¹ s⁻¹
kon by corrected fluorescence anisotropy rF(t) (AV-BcO, 15 °C, 260 nM): 4e+06 ± 100000 M⁻¹ s⁻¹
kon (AV-BcO, 15 °C, 260 nM, read-out: kon by corrected fluorescence anisotropy rF(t)): 4e+06 M⁻¹ s⁻¹
kon (AV-BcO, 15 °C, 260 nM, read-out: kon by fluorescence change F(t)): 4.1e+06 ± 100000 M⁻¹ s⁻¹
kon (AV-BcO, 15 °C, 260 nM, read-out: kon by fluorescence change F(t), right block without spread): 4.1e+06 M⁻¹ s⁻¹
kon by corrected fluorescence anisotropy rF(t) (AV-BcO, 15 °C, 520 nM): 3.82e+06 ± 100000 M⁻¹ s⁻¹
kon (AV-BcO, 15 °C, 520 nM, read-out: kon by corrected fluorescence anisotropy rF(t)): 3.82e+06 M⁻¹ s⁻¹
kon (AV-BcO, 15 °C, 520 nM, read-out: kon by fluorescence change F(t)): 3.95e+06 ± 100000 M⁻¹ s⁻¹
kon (AV-BcO, 15 °C, 520 nM, read-out: kon by fluorescence change F(t), right block without spread): 3.95e+06 M⁻¹ s⁻¹
kon by corrected fluorescence anisotropy rF(t) (AV-BcO, 15 °C, 1040 nM): 4e+06 ± 200000 M⁻¹ s⁻¹
kon (AV-BcO, 15 °C, 1040 nM, read-out: kon by corrected fluorescence anisotropy rF(t)): 4e+06 M⁻¹ s⁻¹
kon (AV-BcO, 15 °C, 1040 nM, read-out: kon by fluorescence change F(t)): 3.9e+06 ± 200000 M⁻¹ s⁻¹
kon (AV-BcO, 15 °C, 1040 nM, read-out: kon by fluorescence change F(t), right block without spread): 3.9e+06 M⁻¹ s⁻¹
kon (AV-BcO, 15 °C, average of F(t) and rF(t) at 260, 520, 1040 nM, read-out: kon, Average): 4e+06 M⁻¹ s⁻¹
kon (AV-BcO, 20 °C, 260 nM, read-out: kon by corrected fluorescence anisotropy rF(t)): 5.9e+06 M⁻¹ s⁻¹
kon (AV-BcO, 20 °C, 260 nM, read-out: kon by fluorescence change F(t)): 5.7e+06 ± 100000 M⁻¹ s⁻¹
kon (AV-BcO, 20 °C, 260 nM, read-out: kon by fluorescence change F(t), right block without spread): 5.7e+06 M⁻¹ s⁻¹
kon by corrected fluorescence anisotropy rF(t) (AV-BcO, 20 °C, 520 nM): 5.8e+06 ± 100000 M⁻¹ s⁻¹
kon (AV-BcO, 20 °C, 520 nM, read-out: kon by corrected fluorescence anisotropy rF(t)): 5.8e+06 M⁻¹ s⁻¹
kon (AV-BcO, 20 °C, 520 nM, read-out: kon by fluorescence change F(t)): 5.9e+06 ± 300000 M⁻¹ s⁻¹
kon (AV-BcO, 20 °C, 520 nM, read-out: kon by fluorescence change F(t), right block without spread): 5.9e+06 M⁻¹ s⁻¹
kon by corrected fluorescence anisotropy rF(t) (AV-BcO, 20 °C, 1040 nM): 6.1e+06 ± 100000 M⁻¹ s⁻¹
kon (AV-BcO, 20 °C, 1040 nM, read-out: kon by corrected fluorescence anisotropy rF(t)): 6.1e+06 M⁻¹ s⁻¹
kon (AV-BcO, 20 °C, 1040 nM, read-out: kon by fluorescence change F(t)): 6e+06 ± 100000 M⁻¹ s⁻¹
kon (AV-BcO, 20 °C, 1040 nM, read-out: kon by fluorescence change F(t), right block without spread): 6e+06 M⁻¹ s⁻¹
kon (AV-BcO, 20 °C, average of F(t) and rF(t) at 260, 520, 1040 nM, read-out: kon, Average): 5.9e+06 M⁻¹ s⁻¹
kon (AV-BcO, 25 °C, 260 nM, read-out: kon by corrected fluorescence anisotropy rF(t)): 9.5e+06 M⁻¹ s⁻¹
kon (AV-BcO, 25 °C, 260 nM, read-out: kon by fluorescence change F(t)): 9.5e+06 ± 100000 M⁻¹ s⁻¹
kon (AV-BcO, 25 °C, 260 nM, read-out: kon by fluorescence change F(t), right block without spread): 9.5e+06 M⁻¹ s⁻¹
kon (AV-BcO, 25 °C, 520 nM, read-out: kon by corrected fluorescence anisotropy rF(t)): 9.5e+06 M⁻¹ s⁻¹
kon (AV-BcO, 25 °C, 520 nM, read-out: kon by fluorescence change F(t)): 9.5e+06 ± 300000 M⁻¹ s⁻¹
kon (AV-BcO, 25 °C, 520 nM, read-out: kon by fluorescence change F(t), right block without spread): 9.5e+06 M⁻¹ s⁻¹
kon by corrected fluorescence anisotropy rF(t) (AV-BcO, 25 °C, 1040 nM): 9.4e+06 ± 200000 M⁻¹ s⁻¹
kon (AV-BcO, 25 °C, 1040 nM, read-out: kon by corrected fluorescence anisotropy rF(t)): 9.4e+06 M⁻¹ s⁻¹
kon (AV-BcO, 25 °C, 1040 nM, read-out: kon by fluorescence change F(t)): 9.7e+06 ± 300000 M⁻¹ s⁻¹
kon (AV-BcO, 25 °C, 1040 nM, read-out: kon by fluorescence change F(t), right block without spread): 9.7e+06 M⁻¹ s⁻¹
kon (AV-BcO, 25 °C, average of F(t) and rF(t) at 260, 520, 1040 nM, read-out: kon, Average): 9.5e+06 M⁻¹ s⁻¹
Ea^Forward (AV, pH 8): 14.4 ± 0.6 kcal/mol
ln(k) (AV, pH8, 10 (283.15 K)): 14.8
k(average) (AV, pH8, 10 (283.15 K)): 2.60E+06
kon (AV, pH8, 10 (283.15 K), k (scaled)): 2.6e+06 M⁻¹ s⁻¹
ln(k) (AV, pH8, 15 (288.15 K)): 15.2
k(average) (AV, pH8, 15 (288.15 K)): 3.90E+06
kon (AV, pH8, 15 (288.15 K), k (scaled)): 3.9e+06 M⁻¹ s⁻¹
ln(k) (AV, pH8, 20 (293.15 K)): 15.6
k(average) (AV, pH8, 20 (293.15 K)): 5.90E+06
kon (AV, pH8, 20 (293.15 K), k (scaled)): 5.9e+06 M⁻¹ s⁻¹
ln(k) (AV, pH8, 25 (298.15 K)): 16.1
k(average) (AV, pH8, 25 (298.15 K)): 9.50E+06
kon (AV, pH8, 25 (298.15 K), k (scaled)): 9.5e+06 M⁻¹ s⁻¹
ΔG^ǂ (AV, pH 8, forward): 4.6 ± 0.3 kcal/mol
ΔS^ǂ (AV, pH 8, forward): 33.0 ± 2.5 cal/°K·mol
Ea^Forward (AV, pH 9): 13.9 ± 0.7 kcal/mol
ln(k) (AV, pH 9, 10 (283.15 K)): 14.7
k(average) (AV, pH 9, 10 (283.15 K)): 2.31E+06
kon (AV, pH 9, 10 (283.15 K), k (scaled)): 2.3e+06 M⁻¹ s⁻¹
ln(k) (AV, pH 9, 15 (288.15 K)): 15.0
k(average) (AV, pH 9, 15 (288.15 K)): 3.36E+06
